Measured values published in US9605024B2, “PAR4 agonist peptides” (Bristol-Myers Squibb Company, priority 2012, dated 2017).
pEC50, pIC50: −log10 of the molar value. Each block holds one compound with its values, some of them ahead of it.

Assays:
[1] = TRACER phase III trial, ACS patients; cited from earlier work
washed platelets = test: PAR4 agonist peptide induced platelet aggregation assay (washed platelets); format: cell-based, human; settings: agonist activity
Protocol: Human blood was collected in ACD (85 mM tri-sodium citrate, 78 mM citric acid, 110 mM D-glucose, pH 4.4) at a ratio of 1.4 ml per 10 ml blood. PRP was isolated by centrifugation at 170 g for 14 minutes and platelets were further pelleted by centrifugation at 1300 g for 6 minutes. Platelets were washed once with 10 ml ACD containing 1 mg/ml bovine serum albumin.
The ability of the compounds of the current invention to induce platelet aggregation was tested in a 96-well microplate aggregation assay format. Briefly, a washed platelet suspension with varying concentrations of agonist compounds was assayed. Aggregation was initiated by the addition of a titered test agonist peptide. The plate was then placed into a 37° C. Molecular Devices SPECTRAMAX® Plus Plate Reader (Sunnyvale, Calif.). […] The plate also included an untreated control sample which served as ODmax, while buffer containing no platelets was the ODmin. Platelet aggregation was determined by subtracting the ODmax from the ODmin for the 100% aggregation value. In experimental samples, the observed transmission was subtracted from the minimum value and then compared to the 100% aggregation value to determine the percentage aggregation. ED50 values were determined using Excel Fit software.

PAR4 [2] = target: T1, PAR4 (Homo sapiens (Human), UniProt Q96RI0); test: FLIPR assay in PAR4-expressing HEK293 cells, test for antagonist activity; format: cell-based; settings: H-Ala-Phe(4-F)-Pro-Gly-Trp-Leu-Val-Lys-Asn-Gly-NH2-induced calcium mobilization
Excerpt: The FLIPR assay is an exemplary in vitro assay for measuring the activity of the PAR4 antagonists of the present invention. In this assay, intracellular calcium mobilization is induced in PAR4 expressing cells by a PAR4 agonist and calcium mobilization is monitored. See, e.g., Example A. The FLIPR assay is also an exemplary in vitro assay for measuring the agonist activity of PAR4 agonist peptides. See Example H.
HEK293 cells stably expressing PAR4 were generated by a standard method of transfection of human […] cDNA expression vector or by RAGE technology from Athersys Inc. (Cleveland, Ohio) and selected based on PAR4 protein expression of mRNA expression. […] These cells express endogenous PAR1 and can elicit calcium signal upon stimulation with PAR1 agonist peptide.
Counter screens for agonist activity and PAR1 antagonist activity were also performed. Briefly, HEK293 EBNA PAR4 clone 20664.1J cells were plated 24 hrs. prior to experiment in 384 well, Poly-D-Lysine coated, black, clear bottom plates (Greiner Bio-One, Monroe, N.C.). Cells were plated at 20,000 cells/well in 20 μl growth medium and incubated at 37° C. with 5% CO2 overnight. At time of assay, media was replaced with 40 μl 1× Hank's Buffered Saline Solution (HBSS) (with 10 mM HEPES) and 20 μl test compound also diluted in 1×HBSS buffer was added at various concentrations and 0.67% DMSO final concentration on the FDSS for agonist measurement. The cells were then incubated for 30 minutes at room temperature followed by addition of 20 μl of agonist peptide for antagonist measurement on the FDSS.

PAR4 [3] = target: T1, PAR4; test: Gamma thrombin induced platelet aggregation assay (PRP assay); format: cell-based; settings: platelet rich plasma
Protocol: The platelet rich plasma was isolated by centrifugation at 170 g for 14 minutes.
The ability of the compounds of the current invention to inhibit platelet aggregation induced by gamma-thrombin was tested in a 96-well microplate aggregation assay format. Briefly, PRP or washed platelet suspension (100 μl) was pre-incubated for 5 minutes at room temperature with varying concentrations of compounds. Aggregation was initiated by ˜10-50 nM gamma thrombin (Haematologic Technologies, Essex Junction, Vt.), which was titrated daily to achieve 80% platelet aggregation. Refludan at 1 U/mL (Berlex, Montville, N.J.) was added to the gamma thrombin sample to prevent PAR1 activation induced by residual alpha-thrombin contamination. The plate was then placed into a 37° C. Molecular Devices (Sunnyvale, Calif.) SPECTRAMAX® Plus Plate Reader. […] The plate also included an untreated control sample which served as ODmax, while buffer containing no platelets was the ODmin. Platelet aggregation was determined by subtracting the ODmax from the ODmin for the 100% aggregation value. In experimental samples, the observed transmission was subtracted from the minimum value and then compared to the 100% aggregation value to determine the percentage aggregation. IC50 values are determined using Excel Fit software.

[4] = target: protease-activated receptor type 4 (PAR4) (Homo sapiens (Human), UniProt Q96RI0); settings: abstract of Lee et al., J. Med. Chem. 2001; cited from earlier work
Sequence of protease-activated receptor type 4 (PAR4) (Q96RI0 18-385): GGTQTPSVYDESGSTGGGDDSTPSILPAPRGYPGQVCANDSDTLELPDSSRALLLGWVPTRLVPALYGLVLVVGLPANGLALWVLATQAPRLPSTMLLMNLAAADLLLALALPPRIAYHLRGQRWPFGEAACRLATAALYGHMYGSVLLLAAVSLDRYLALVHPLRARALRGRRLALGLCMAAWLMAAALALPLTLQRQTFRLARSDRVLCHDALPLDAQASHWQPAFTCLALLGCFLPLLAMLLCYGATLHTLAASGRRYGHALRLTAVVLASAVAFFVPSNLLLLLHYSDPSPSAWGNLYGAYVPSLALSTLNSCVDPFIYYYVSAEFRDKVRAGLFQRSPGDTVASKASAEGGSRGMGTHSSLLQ

T1 sequence (Q96RI0 18-385): as above

Structure (SMILES): CCOC(=O)N[C@@H]1CC[C@@H]2[C@@H](C1)C[C@H]1C(=O)O[C@H](C)[C@H]1[C@H]2/C=C/c1ccc(-c2cccc(F)c2)cn1 [vorapaxar]
cardiovascular events [1]: did not significantly reduce cardiovascular events
risk of major bleeding [1]: significantly increased the risk of major bleeding

Structure (SMILES): COc1cc(OCc2csc(C)n2)c2cc(-c3cn4nc(OC)sc4n3)oc2c1 [Example 1, 2-Methoxy-6-(6-methoxy-4-((2-methylthiazol-4-yl)methoxy)benzofuran-2-yl)imidazo[2,1-b][1,3,4]thiadiazole]
ED50 (μM) [Platelet Aggregation] (washed platelets): 13 µM

Structure (SMILES): COc1cc(OCc2cnnn2-c2ccccc2)c2cc(-c3cn4nc(OC)sc4n3)oc2c1 [Example 10, 2-Methoxy-6-(6-methoxy-4-((1-phenyl-1H-1,2,3-triazol-5-yl)methoxy)benzofuran-2-yl)imidazo[2,1-b][1,3,4]thiadiazole]
pEC50 (PAR4 [2]): 8.46
pIC50 (PAR4 [3]): 5.57

Structure (SMILES): COc1cc(OCc2csc(C3CCCCC3)n2)c2cc(-c3cn4nc(OC)sc4n3)oc2c1 [Example 20]
ED50 (μM) [Platelet Aggregation] (washed platelets): 4.1 µM

Structure (SMILES): COc1cc(OCc2csc(-c3ccc(F)cc3F)n2)c2cc(-c3cn4nc(OC)sc4n3)oc2c1 [Example 24]
ED50 (μM) [Platelet Aggregation] (washed platelets): 0.69 µM

Structure (SMILES): COc1cc(OCc2csc(-c3ccccc3Cl)n2)c2cc(-c3cn4nc(OC)sc4n3)oc2c1 [Example 16]
ED50 (μM) [Platelet Aggregation] (washed platelets): 37 µM

Structure (SMILES): COc1cc(OCc2nc(-c3ccccc3)sc2C)c2cc(-c3cn4nc(OC)sc4n3)oc2c1 [Example 13]
ED50 (μM) [Platelet Aggregation] (washed platelets): 0.67 µM

Structure (SMILES): COc1ccc(-c2nc(COc3cc(OC)cc4oc(-c5cn6nc(OC)sc6n5)cc34)cs2)cc1 [Example 18]
pEC50 (PAR4 [2]): 8.60
ED50 (μM) [Platelet Aggregation] (washed platelets): 5.5 µM
pIC50 (PAR4 [3]): 8.44

Structure (SMILES): COc1cc(OCc2csc(-c3ccccc3OC)n2)c2cc(-c3cn4nc(OC)sc4n3)oc2c1 [Example 19]
ED50 (μM) [Platelet Aggregation] (washed platelets): 1.6 µM

Structure (SMILES): COc1cc(OCc2csc(-c3ccccc3)n2)c2cc(-c3cn4nc(OC)sc4n3)oc2c1 [Example 3, 2-Methoxy-6-(6-methoxy-4-((2-phenylthiazol-4-yl)methoxy)benzofuran-2-yl)imidazo[2,1-b][1,3,4]thiadiazole]
ED50 (μM) [Platelet Aggregation] (washed platelets): 0.86 µM

Structure (SMILES): COc1cc(OCc2csc(-c3cccc(F)c3)n2)c2cc(-c3cn4nc(OC)sc4n3)oc2c1 [Example 25]
ED50 (μM) [Platelet Aggregation] (washed platelets): 52 µM

Structure (SMILES): COc1cc(OCc2csc(-c3cccnc3)n2)c2cc(-c3cn4nc(OC)sc4n3)oc2c1 [Example 30]
ED50 (μM) [Platelet Aggregation] (washed platelets): 1.7 µM

Structure (SMILES): COc1cc(OCc2csc(-c3cccc(C(F)(F)F)c3)n2)c2cc(-c3cn4nc(OC)sc4n3)oc2c1 [Example 17]
ED50 (μM) [Platelet Aggregation] (washed platelets): 106 µM

Structure (SMILES): COc1cc(OCc2csc(C3CCOCC3)n2)c2cc(-c3cn4nc(OC)sc4n3)oc2c1 [Example 14]
ED50 (μM) [Platelet Aggregation] (washed platelets): 12.3 µM

Structure (SMILES): COc1cc(OCc2csc(N3CCC(F)(F)CC3)n2)c2cc(-c3cn4nc(OC)sc4n3)oc2c1 [Example 31]
ED50 (μM) [Platelet Aggregation] (washed platelets): 0.63 µM

Structure (SMILES): COc1cc(OCc2csc(-c3ccc(OC(F)(F)F)cc3)n2)c2cc(-c3cn4nc(OC)sc4n3)oc2c1 [Example 29]
ED50 (μM) [Platelet Aggregation] (washed platelets): 1.0 µM

Structure (SMILES): COc1cc(OCc2csc(N3CCCCC3)n2)c2cc(-c3cn4nc(OC)sc4n3)oc2c1 [Example 21]
ED50 (μM) [Platelet Aggregation] (washed platelets): 2.4 µM

Structure (SMILES): COc1cc(OCc2csc(-c3ccc(Cl)cc3)n2)c2cc(-c3cn4nc(OC)sc4n3)oc2c1 [Example 27]
ED50 (μM) [Platelet Aggregation] (washed platelets): 1.7 µM

Structure (SMILES): CCOC(=O)c1ccc(-c2nn(Cc3ccccc3)c3ccccc23)cc1 [Compound 58]
inhibition of PAR4-dependent platelet activation [4]: selective and potent inhibitor

Structure (SMILES): COc1cc(OCc2csc(-c3ccncc3)n2)c2cc(-c3cn4nc(OC)sc4n3)oc2c1 [Example 28]
ED50 (μM) [Platelet Aggregation] (washed platelets): 0.76 µM

Structure (SMILES): COc1cc(OCc2cscn2)c2cc(-c3cn4nc(OC)sc4n3)oc2c1 [Example 34]
ED50 (μM) [Platelet Aggregation] (washed platelets): 3.0 µM

Structure (SMILES): COc1cc(OCc2cn(-c3ccccc3)nn2)c2cc(-c3cn4nc(OC)sc4n3)oc2c1 [Example 9, 2-Methoxy-6-(6-methoxy-4-((1-phenyl-1H-1,2,3-triazol-4-yl)methoxy)benzofuran-2-yl)imidazo[2,1-b][1,3,4]thiadiazole]
pEC50 (PAR4 [2]): 8.28
pIC50 (PAR4 [3]): < 5.52

Structure (SMILES): COc1cc(OCc2csc(N3CCN(C)CC3)n2)c2cc(-c3cn4nc(OC)sc4n3)oc2c1 [Example 22]
ED50 (μM) [Platelet Aggregation] (washed platelets): 1.2 µM

Structure (SMILES): COc1cc(OCc2csc(-c3ccccc3F)n2)c2cc(-c3cn4nc(OC)sc4n3)oc2c1 [Example 26]
ED50 (μM) [Platelet Aggregation] (washed platelets): 1.0 µM

Structure (SMILES): COc1cc(OCc2csc(C(F)(F)F)n2)c2cc(-c3cn4nc(OC)sc4n3)oc2c1 [Example 2, 2-Methoxy-6-(6-methoxy-4-((2-(trifluoromethyl)thiazol-4-yl)methoxy)benzofuran-2-yl)imidazo[2,1-b][1,3,4]thiadiazole]
pEC50 (PAR4 [2]): 9.38
pIC50 (PAR4 [3]): 7.31

Structure (SMILES): COc1cc(OCc2csc(-c3cccc(C)c3)n2)c2cc(-c3cn4nc(OC)sc4n3)oc2c1 [Example 12]
ED50 (μM) [Platelet Aggregation] (washed platelets): 0.97 µM

Structure (SMILES): CCc1nc(COc2cc(OC)cc3oc(-c4cn5nc(OC)sc5n4)cc23)cs1 [Example 23]
ED50 (μM) [Platelet Aggregation] (washed platelets): 0.79 µM

pEC50 (PAR4 [2]): 9.00
pIC50 (PAR4 [3]): 7.32
Structure (SMILES): COc1nn2cc(-c3cc4c(OCc5csc(-c6ccccc6)n5)cc(F)cc4o3)nc2s1 [Example 36, 6-(6-Fluoro-4-((2-phenylthiazol-4-yl)methoxy)benzofuran-2-yl)-2-methoxyimidazo[2,1-b][1,3,4]thiadiazole]

Structure (SMILES): COCCOCc1nc(COc2cc(OC)cc3oc(-c4cn5nc(OC)sc5n4)cc23)cs1 [Example 6, 2-Methoxy-6-(6-methoxy-4-((2-((2-methoxyethoxy)methyl)thiazol-4-yl)methoxy)benzofuran-2-yl)imidazo[2,1-b][1,3,4]thiadiazole]
ED50 (μM) [Platelet Aggregation] (washed platelets): 1.1 µM

Structure (SMILES): COc1cc(OCc2csc(-c3ccc(F)cc3)n2)c2cc(-c3cn4nc(OC)sc4n3)oc2c1 [Example 15]
ED50 (μM) [Platelet Aggregation] (washed platelets): 0.63 µM

Structure (SMILES): COc1cc(OCc2csc(-c3cnccn3)n2)c2cc(-c3cn4nc(OC)sc4n3)oc2c1 [Example 32]
ED50 (μM) [Platelet Aggregation] (washed platelets): 0.61 µM

Structure (SMILES): COc1cc(OCc2csc(-c3cc(C)on3)n2)c2cc(-c3cn4nc(OC)sc4n3)oc2c1 [Example 33]
pEC50 (PAR4 [2]): 8.77
ED50 (μM) [Platelet Aggregation] (washed platelets): 1.2 µM
pIC50 (PAR4 [3]): 7.42
